We go through one molecule from the NIST ThermoML archive (doi:10.1021/acs.jced.8b01250).

Numbers after ± are expanded uncertainties.

The nature of data set [1]: Molar enthalpy of transition or fusion. As to conditions: Crystal; DSC.
For data set [2] the following is noted: Crystal; DSC.

Take `N#Cc1cccc([N+](=O)[O-])c1C#N` [3-nitrophthalonitrile]: the “Molar enthalpy of transition or fusion” value in data set [1] was 4.59 ± 0.194 kcal/mol. For the same molecule, in data set [2], the Triple point temperature was 435.55 ± 1.2 K.
